Reference: US10000488B2, “Heterocyclic compound” (TAKEDA PHARMACEUTICAL COMPANY LIMITED, priority 2014, dated 2018)
Read-outs that look alike come from different tables or passages of the source.

What was measured:
[1] = molecular target: T1, RORγt (Homo sapiens, UniProt P51449); assay: Jurkat reporter test (human IL-17 ROR response element luciferase reporter, RORγt vector); assay type: cell-based; conditions: Jurkat cells; for inhibition at 3 µM: test compound 3 μM, read-out: luminescence level inhibitory rate (%) at test compound 3 μM
T1 sequence (P51449 1-497 isoform P51449-2): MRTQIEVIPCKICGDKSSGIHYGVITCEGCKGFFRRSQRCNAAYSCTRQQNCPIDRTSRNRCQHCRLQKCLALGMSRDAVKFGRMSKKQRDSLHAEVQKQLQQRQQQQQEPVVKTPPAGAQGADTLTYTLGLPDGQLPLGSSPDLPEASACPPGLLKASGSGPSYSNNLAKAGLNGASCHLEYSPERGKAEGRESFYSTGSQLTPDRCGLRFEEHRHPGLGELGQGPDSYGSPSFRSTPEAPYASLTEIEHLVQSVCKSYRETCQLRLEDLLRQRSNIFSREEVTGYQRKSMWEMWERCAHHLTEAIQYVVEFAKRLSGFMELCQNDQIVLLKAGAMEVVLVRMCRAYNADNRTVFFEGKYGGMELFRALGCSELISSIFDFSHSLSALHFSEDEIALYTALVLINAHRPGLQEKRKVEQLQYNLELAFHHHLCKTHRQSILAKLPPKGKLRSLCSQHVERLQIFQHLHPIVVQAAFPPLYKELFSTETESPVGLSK
Procedure: The Jurkat cells used for the reporter test were cultured in a culture medium (RPMI (Invitrogen), 10% FCS (AusGeneX), 100 U/mL penicillin, 100 μg/mL streptomycin). On the day of the test, 4×10^7 cells were recovered by a centrifugal operation (1000 rpm, for 5 min) and suspended in PBS (phosphate buffered saline) (Invitrogen). Thereafter, the cells were recovered again by a centrifugal operation, and suspended in 2 mL of R buffer (NEON transfection kit, Invitrogen). […] Gene transfer was performed by Electroporation apparatus (NEON, Invitrogen) under the conditions of pulse voltage 1350 V, interval 10 milliseconds, number of times 3. The cells after gene transfer were suspended in 40 mL of a reaction medium (RPMI, 10% Lipid reduced FCS (HyClone), 10 mM HEPES (pH 7.5), 100 U/mL penicillin, 100 μg/mL streptomycin, 5 μM lovastatin), and plated in a 96 well plate by 90 μL. A test compound diluted with the reaction medium was added by 10 μL, and the cells were cultured overnight in an incubator. Bright-Glo (Promega) was added by 100 μL, and the mixture was stirred at room temperature for 10 min, and the luminescence level was measured by Envision (PerkinElmer).

[2] = molecular target: T1, RORγt; assay: RORγt binding test using fluorescent-labeled synthetic ligand (TR-FRET); conditions: for inhibition at 1 µM: test compound 1 μM, read-out: binding inhibitory rate (%) of fluorescent-labeled synthetic ligand to RORγt at test compound 1 μM
Procedure: RORγt Binding Test Using Fluorescent-Labeled Synthetic Ligand
The binding activity of the test compound to RORγt was measured by a time resolved fluorescence resonance energy transfer (TR-FRET) utilizing histidine-tagged RORγt, fluorescent-labeled synthetic ligand, and terbium-labeled anti-histidine tag antibody (Invitrogen). First, a test compound diluted with an assay buffer (20 mM Tris-HCl (pH 7.5), 100 mM NaCl, 1 mM DTT, 0.1% BSA) was added to a 384 well plate by 3 μL. Then, RORγt diluted with an assay buffer to 240 nM was added by 3 μL, after which fluorescent-labeled synthetic ligand diluted with the assay buffer to 12 μM was added by 3 μL, and the mixture was stood at room temperature for 20 min. Thereafter, a terbium-labeled anti-histidine tag antibody diluted with the assay buffer to 8 nM was added by 3 μL. The mixture was stood at room temperature for 20 min, and fluorescence intensity (excitation wavelength 320 nm, fluorescence wavelength 520 nm, delay time 100 microseconds) was measured by Envision (PerkinElmer).

[3] = molecular target: T1, RORγt; assay: Cofactor recruitment test (Alpha Screen, biotinylated SRC-1 peptide); assay type: biochemical; conditions: for inhibition at 1 µM: read-out: signal value inhibitory rate (%) at test compound 1 μM
Procedure: Cofactor Recruitment Test
Cofactor recruitment test was performed by Alpha Screen (Histidine Detection Kit, PerkinElmer) method. First, a test compound was diluted with an assay buffer (50 mM Tris-HCl (pH 7.5), 50 mM KCl, 1 mM DTT, 0.1% BSA) and added to a 384 well plate by 5 μL. […] The mixture was stood in a dark place for 1 hr, and the signal value was measured by Envision (PerkinElmer).

Row | inhibition at 3 µM [1] | inhibition at 1 µM [2] | inhibition at 1 µM [3] | SMILES | also measured
1 | 101% | 102% | 111% | CC(C)n1c(=O)n(CC2CC2)c(=O)c2cc(NC(=O)N3CCCC(NC(=O)c4ccc(C#N)cc4)C3)ccc21 (stereo not shown) [Example 180, 3-((4-cyanobenzoyl)amino)-N-(3-(cyclopropylmethyl)-1-isopropyl-2,4-dioxo-1,2,3,4-tetrahydroquinazolin-6-yl)piperidine-1-carboxamide] | 
2 |  |  |  | CC(C)n1c(=O)n(CC2CC2(F)F)c(=O)c2cc(NC(=O)N3CCOC(C(=O)Nc4ccc(C#N)c(Cl)c4)C3)c(F)cc21 (single isomer, unassigned) [Example 368, (2R)—N^2-(3-chloro-4-cyanophenyl)-N^4-(3-(((1R or 1S)-2,2-difluorocyclopropyl)methyl)-7-fluoro-1-isopropyl-2,4-dioxo-1,2,3,4-tetrahydroquinazolin-6-yl)morpholine-2,4-dicarboxamide (one stereoisomer, quinazolinedione: derived from tR2)] | luminescence level inhibitory rate (%) at test compound 3 μM [1]: 108%; binding inhibitory rate (%) of fluorescent-labeled synthetic ligand to RORγt at test compound 1 μM [2]: 102%; signal value inhibitory rate (%) at test compound 1 μM ([3]; test compound 1 μM): 105%
3 | 108% | 102% | 94% | CCNC(=O)OCc1ccc(C(=O)N[C@@H]2CCCN(C(=O)Nc3cc4c(=O)n(CC5CC5)c(=O)n(C(C)C)c4cc3F)C2)cc1 [Example 315, 4-(((3R)-1-((3-(cyclopropylmethyl)-7-fluoro-1-isopropyl-2,4-dioxo-1,2,3,4-tetrahydroquinazolin-6-yl)carbamoyl)piperidin-3-yl)carbamoyl)benzyl ethylcarbamate] | 
4 | 102% | 102% | 109% | COC(=O)c1cccc(C(=O)NC2CCCN(C(=O)Nc3ccc4c(c3)c(=O)n(CC3CC3)c(=O)n4C(C)C)C2)c1 (stereo not shown) [Example 113, methyl 3-((1-((3-(cyclopropylmethyl)-1-isopropyl-2,4-dioxo-1,2,3,4-tetrahydroquinazolin-6-yl)carbamoyl)piperidin-3-yl)carbamoyl)benzoate] | 
5 | 101% | 102% | 103% | CC(C)n1c(=O)n(CC2CC2)c(=O)c2cc(NC(=O)N3CCCC(NC(=O)Nc4ccccc4)C3)ccc21 (stereo not shown) [Example 146, N-(3-(cyclopropylmethyl)-1-isopropyl-2,4-dioxo-1,2,3,4-tetrahydroquinazolin-6-yl)-3-((phenylcarbamoyl)amino) piperidine-1-carboxamide] | 
6 |  |  |  | CC(C)n1c(=O)n(CC2CC2(F)F)c(=O)c2cc(NC(=O)N3CCCC(n4cnc5cc(C#N)ccc5c4=O)C3)c(F)cc21 (single isomer, unassigned) [Example 369, (3R)-3-(7-cyano-4-oxoquinazoline-3(4H)-yl)-N-(3-(((1R or 1S)-2,2-difluorocyclopropyl)methyl)-7-fluoro-1-isopropyl-2,4-dioxo-1,2,3,4-tetrahydroquinazolin-6-yl)piperidine-1-carboxamide (one stereoisomer, quinazolinedione: derived from tR2)] | luminescence level inhibitory rate (%) at test compound 3 μM [1]: 110%; binding inhibitory rate (%) of fluorescent-labeled synthetic ligand to RORγt at test compound 1 μM [2]: 102%
7 |  |  |  | CC(C(F)F)n1c(=O)n(CC2CC2)c(=O)c2cc(NC(=O)N3CCOC(C(=O)Nc4ccc(C#N)c(Cl)c4)C3)c(F)cc21 [Example 373, (2R)-N^2-(3-chloro-4-cyanophenyl)-N^4-(3-(cyclopropylmethyl)-1-(1,1-difluoropropan-2-yl)-7-fluoro-2,4-dioxo-1,2,3,4-tetrahydro-quinazolin-6-yl)morpholine-2,4-dicarboxamide (one stereoisomer, quinazolinedione: derived from tR2)] | binding inhibitory rate (%) of fluorescent-labeled synthetic ligand to RORγt at test compound 1 μM ([2]; 1 µM): 97%
8 |  | 95% |  | CC(C)n1c(=O)n(CC2CC2)c(=O)c2cc(NC(=O)N3CCC(F)(F)C(n4cnc5cc(C#N)ccc5c4=O)C3)c(F)cc21 (stereo not drawn) [Example 375, 3-(7-cyano-4-oxoquina-zoline-3(4H)-yl)-N-(3-(cyclopropylmethyl)-7-fluoro-1-isopropyl-2,4-dioxo-1,2,3,4-tetrahydro-quinazolin-6-yl)-4,4-difluoropiperidine-1-carboxamide (one stereoisomer, piperidine: derived from tR1)] | 
9 |  |  |  | CC(C(F)F)n1c(=O)n(CC2CC2)c(=O)c2cc(NC(=O)N3CCCC(n4cnc5cc(C#N)ccc5c4=O)C3)c(F)cc21 [Example 374, (3R)-3-(7-cyano-4-oxoquinazoline-3(4H)-yl)-N-(3-(cyclopropylmethyl)-1-(1,1-difluoropropan-2-yl)-7-fluoro-2,4-dioxo-1,2,3,4-tetrahydro-quinazolin-6-yl)piperidine-1-carboxamide (one stereoisomer, quinazolinedione: derived from tR2)] | binding inhibitory rate (%) of fluorescent-labeled synthetic ligand to RORγt at test compound 1 μM ([2]; 1 µM): 102%
10 |  | 101% |  | CC(C(F)F)n1c(=O)n(CC2CC2)c(=O)c2cc(NC(=O)N3CCCC(n4cnc5cc(C#N)ccc5c4=O)C3)c(F)cc21 [Example 372, (3R)-3-(7-cyano-4-oxoquinazoline-3(4H)-yl)-N-(3-(cyclopropylmethyl)-1-(1,1-difluoropropan-2-yl)-7-fluoro-2,4-dioxo-1,2,3,4-tetrahydro-quinazolin-6-yl)piperidine-1-carboxamide (one stereoisomer, quinazolinedione: derived from tR1)] | 

Row | SMILES | inhibition at 3 µM [1] | inhibition at 1 µM [2] | inhibition at 1 µM [3] | also measured
11 | CC(C)n1c(=O)n(CC2CC2)c(=O)c2cc(NC(=O)N3CCO[C@@H](C(=O)Nc4ccc(C#N)c(Cl)c4)C3)c(F)cc21 [Example 235, (2R)-N^2-(3-chloro-4-cyanophenyl)-N^4-(3-(cyclopropylmethyl)-7-fluoro-1-isopropyl-2,4-dioxo-1,2,3,4-tetrahydroquinazolin-6-yl)morpholine-2,4-dicarboxamide] | 103% | 102% | 109% | 
12 | CC(C)n1c(=O)n(CC2CC2(F)F)c(=O)c2cc(NC(=O)N3CCO[C@@H](C(=O)Nc4ccc(C#N)c(Cl)c4)C3)c(F)cc21 (stereo partly drawn) [Example 331, (2R)—N^2-(3-chloro-4-cyanophenyl)-N^4-(3-((2,2-difluorocyclopropyl)methyl)-7-fluoro-1-isopropyl-2,4-dioxo-1,2,3,4-tetrahydroquinazolin-6-yl)morpholine-2,4-dicarboxamide] | 103% | 102% | 109% | 
13 | CC(C)n1c(=O)n(CC2CC2)c(=O)c2cc(NC(=O)N3CCNC(C(=O)Nc4ccc(C#N)c(Cl)c4)C3)ccc21 (stereo not shown) [Example 82, N^3-(3-chloro-4-cyanophenyl)-N^1-(3-(cyclopropylmethyl)-1-isopropyl-2,4-dioxo-1,2,3,4-tetrahydroquinazolin-6-yl)piperazine-1,3-dicarboxamide] | 102% | 101% | 103% | 
14 | CC(C(F)F)n1c(=O)n(CC2CC2)c(=O)c2cc(NC(=O)N3CCOC(C(=O)Nc4ccc(C#N)c(Cl)c4)C3)c(F)cc21 [Example 371, (2R)-N^2-(3-chloro-4-cyanophenyl)-N^4-(3-(cyclopropylmethyl)-1-(1,1-difluoropropan-2-yl)-7-fluoro-2,4-dioxo-1,2,3,4-tetrahydro-quinazolin-6-yl)-morpholine-2,4-dicarboxamide (one stereoisomer, quinazolinedione: derived from tR1)] |  | 95% |  | 
